Results published in patent US20140323575A1, “TYROSINE ISOMERS AS THERAPEUTIC AGENTS” (CONSEJO NACIONAL DE INVESTIGACIONES CIENTIFICAS Y TECNICAS …, priority 2011, published 2014).
Entries after “also recorded” stand apart in the source; their conditions may differ.

What was measured:
[1] = tested on: Chinese-hamster ovary (CHO) cells; conditions: cited from earlier work; for toxicity to CHO cells: incubated in vitro for 7-10 days
CEI tumor = experiment: In vivo growth of s.c. CEI epidermoid carcinoma implants; parameters: species or system mice; conditions: for effect on growth of CEI tumor implants: mouse, in vivo
Procedure: Twelve mice received a s.c. implant of 1×10^6 CEI tumor cells in the right flank and 28 days later they received a secondary implant of 3×10^5 CEI tumor cells in the left flank. […] The remaining 6 mice received 0.2 ml of phenylalanine (500 μg/ml) at the site of the secondary implant, daily, for 19 days, starting 1 hour later than the secondary implant. These secondary implants grew as in 6 controls only receiving the implant in the left flank (tumor volumes of secondary tumor+phenylalanine and of controls, 20 days after the implant in the left flank were 358±38 mm^3 and 373±93 mm^3, respectively). […] Significance: Secondary tumor and control+m-tyrosine vs. control: p<0.01; vs. secondary tumor+phenylalanine: p<0.001.

MC-C tumor cells = experiment: In vitro proliferation of MC-C tumor cells; format: cell-based; conditions: dose-dependent, not shown
MC-C tumor = experiment: In vivo growth of s.c. MC-C fibrosarcoma implants; parameters: species or system mice; conditions: for effect on growth of MC-C tumor implants: mouse, in vivo
Procedure: Twelve mice received a s.c. implant of 5×10^6 MC-C tumor cells in the right flank and 25 days later they received a secondary implant of 2×10^6 MC-C tumor cells in the left flank. […] The remaining 6 mice received 0.2 ml of phenylalanine (500 μg/ml) at the site of the secondary implant, daily, for 19 days, starting 1 hour later than the secondary implant. These secondary implants grew as in 6 controls only receiving the implant in the left flank (tumor volumes of secondary tumor+phenylalanine and of controls, 20 days after the implant in the left flank were =680±152 mm^3 and 524±88 mm^3, respectively). […] Significance: Secondary tumor vs. control: p<0.01; vs. secondary tumor+phenylalanine: p<0.02. Control+m-tyrosine vs. control and vs. secondary tumor+phenylalanine: p<0.02.

C7HI tumor metastases = experiment: Spontaneous metastases of C7HI mammary adenocarcinoma in vivo; parameters: species or system mice
Procedure: FIG. 7A illustrates an experiment in which mice bearing a C7HI tumor for 50 days received, between days 50 and 64, a daily intravenous injection of meta-tyrosine (0.3 mL of 1,000 μg/mL) or saline. Mice were sacrificed at day 50 (n=8, before treatment, primary tumor volume 241±16 mm^3) or at day 65 for treated (n=12, primary tumor volume 1,080±101 mm^3) or control (n=12, primary tumor volume 1,091±88 mm^3) mice, and number and size of macroscopic metastases were determined; d=diameter of metastases in mm; a, P<0.05 (Mann-Whitney U test and Student t test) versus control. […] H&E, hematoxylin and eosin.
Mice bearing a C7HI tumor for 50 days received, between days 50 and 71, a daily intravenous injection of 1.0 mg of meta-tyrosine diluted in 0.1 ml of saline, or saline only. Mice were sacrificed ad day 50 (n=12, before treatment) or at day 71 for treated (n=12) or control (n=12) mice, and number and size of macroscopic metastases were determined; d=diameter of metastases in mm.
C7HI is a breast carcinoma that generates a high number of pulmonary and hepatic metastases, the number of pulmonary metastases being higher than the number of hepatic metastases. In this experiment, 36 mice received one implant each of 5×10^5 tumor C7HI cells. 50 days after implanting the tumor cells, 12 mice were sacrificed for evaluating the number and size of pulmonary and hepatic metastases. The remaining 24 mice were divided in two groups of 12 mice each. The experimental group received 1.0 mg of meta-tyrosine diluted in 0.1 ml of saline per mouse per day. […] The second group (control) received in 0.1 ml of saline per mouse per day. After 21 days of treatment, all mice were sacrificed and the number and size of the metastases were evaluated. […] This inhibitory activity was reflected not only in that the number of metastases of both groups was the same, and in some cases lower, as compared with the number of metastases at the beginning of the treatment (as estimated by the data produced by the 12 mice sacrificed before starting the treatments), but also in that their size was either the same or smaller. This is remarkable because of the 12 experimental mice, there was one showing a low response to the treatment. Should the values measured in this particular mouse be excluded from the pool, the number of metastases at day 71 in the experimental group would have been less than half the number of metastases observed before the start of the treatment at day 50.

LB tumor = experiment: In vivo growth of s.c. LB tumor implants (primary, secondary under CR, established, ascitic); parameters: species or system mice; conditions: for growth of LB tumor implant: inoculated at the site of a primary tumor implant or systemically, daily for 8 days
Procedure: Twenty mice received an s.c. implant of 1×10^6 LB cells in the right flank, and, 7 days later, an s.c. secondary implant of 1×10^5 LB tumor cells in the left flank. […] The remaining 10 mice received 0.2 mL of phenylalanine (500 μg/mL) at the site of the secondary implant, daily, for 8 days, starting 1 hour after the secondary inoculum [CR+Phe (-□-)]. Controls were 10 mice receiving 1×10^5 LB tumor cells in the left flank only [control (-Δ-)]. A fourth group received the tumor inoculum in the left flank but also meta-tyrosine at the site of tumor implant (0.2 mL of 500 μg/mL, n=10) or by the intraperitoneal route (0.5 mL of 1,000 μg/mL, n=6), daily, for 8 days, starting 1 hour after tumor inoculum [control+m-Tyr: (-▴-)]. A fifth group received the tumor inoculum in the left flank and also meta-tyrosine (0.2 mL of 500 μg/mL, n=5) at the site of tumor growth, daily for 5 days, starting (see arrow) when LB was an established tumor measuring 60 to 70 mm^3 [est. LB+m-Tyr: (-X-)]. Abscissa, days after tumor implant in the left flank. Ordinate, volume of the tumors implanted in the left flank. CR and control+m-Tyr versus control: P<0.001 at day 9 and P<0.002 at days 5 and 7; CR and control+m-Tyr versus CR+Phe: P<0.001 at days 5, 7 and […]; est. LB+m-Tyr versus control and CR+Phe: P<0.002 at day 9. Control+tyrosine or saline, control; CR+tyrosine or saline, CR. FIG. 6B is a microscopic view showing many tumor cells expressing Ki-67 protein in both CR+phenylalanine (B1) and control (B2) groups and few tumor cells expressing Ki-67 in both CR (B3) and control+meta-tyrosine (B4) groups (H×400). FIG. 6C illustrates a representative experiment showing the frequency distribution histogram of viable LB cells from a control tumor (C1), from a secondary tumor inhibited by CR (C2), and from a tumor inhibited by periodic intraumoral injection of meta-tyrosine (C3). Samples of tumor cells were collected 9 days after the s.c. inoculation of 1×10^5 LB tumor cells.

[2] = 1.0 mg per mouse per day, intravenous, 21 days

| SMILES | toxicity to CHO cells [1] | CHO cells alive 10 days after start of the in vitro culture ([1]; treated with meta-tyrosine) | tumor volume 20 days after the implant in the left flank (CEI tumor; CEI implant in left flank only, 0.2 ml of 500 μg/ml daily for 19 days at the site of the implant) | effect on growth of CEI tumor implants (CEI tumor) | in vitro proliferation of MC-C tumor cells (MC-C tumor cells) | tumor volume 20 days after the implant in the left flank (MC-C tumor; MC-C implant in left flank only, 0.2 ml of 500 μg/ml daily for 19 days at the site of the implant) | effect on growth of MC-C tumor implants (MC-C tumor) | difference between size of primary tumors at day 71, experimental versus controls (C7HI tumor metastases; 1.0 mg daily intravenous, days 50 to 71) | growth of microscopic metastases (C7HI tumor metastases; [2]) | hepatic metastases at day 71 (C7HI tumor metastases; [2]) | growth of established macroscopic pulmonary metastases (C7HI tumor metastases; 1.0 mg per mouse per day, intravenous, 21 days (days 50-71)) | primary tumor volume at day 65 (C7HI tumor metastases; daily intravenous 0.3 mL of 1,000 μg/mL, days 50 to 64) | established spontaneous C7HI lung metastases (C7HI tumor metastases; daily intravenous 0.3 mL of 1,000 μg/mL, days 50 to 64 (FIG. 7), listed as m-tyrosine) | effect on established s.c. LB tumors (LB tumor; at site of tumor growth, daily for 5 days, tumor 60 to 70 mm^3 at start) | expression of Ki-67 protein in tumor cells (LB tumor; control+m-tyrosine tumors or secondary implants treated with phenylalanine (FIG. 6B)) | growth of LB tumor implant (LB tumor) | tumor growth when treatment was interrupted (LB tumor; mouse, in vivo) | cell-cycle distribution of LB tumor cells (LB tumor; tumor inhibited by exogenous injection (FIG. 6C)) | effect on C7HI metastases, experiment repeated with orto-tyrosine (C7HI tumor metastases; mouse, in vivo) |
| --- | --- | --- | --- | --- | --- | --- | --- | --- | --- | --- | --- | --- | --- | --- | --- | --- | --- | --- | --- |
| NC(Cc1cccc(O)c1)C(=O)O (stereo not drawn) [meta-tyrosine, 3-hydroxyphenylalanine] | toxic | 70% | 0 mm^3 | sharp inhibitory effects | inhibited | 212±57 mm^3 | sharp inhibitory effects | not significant | prevented growth | no metastases were detected | prevented the growth | 1,080±101 mm^3 | less metastatic foci; also recorded: sharp inhibitory effects | inhibitory | low expression of Ki-67 | did not grow | could reassume their growth | a decrease in G2-M phases and an increase of the S phase population |  |
| NC(Cc1ccccc1O)C(=O)O (stereo not drawn) [ortho-tyrosine, 2-hydroxyphenylalanine] | toxic |  |  | inhibitory | inhibited |  | inhibitory |  |  |  |  |  |  |  |  | inhibitory |  |  | inhibitory effect |
